Data on 17 compounds can be found in ChEMBL document CHEMBL5442219.

Common to all, as to details: Compound concentration 10 µM
The target in assay [1] is T1, Alpha-1D adrenergic receptor (Homo sapiens) (UniProt P25100).
T1 sequence (whole entry): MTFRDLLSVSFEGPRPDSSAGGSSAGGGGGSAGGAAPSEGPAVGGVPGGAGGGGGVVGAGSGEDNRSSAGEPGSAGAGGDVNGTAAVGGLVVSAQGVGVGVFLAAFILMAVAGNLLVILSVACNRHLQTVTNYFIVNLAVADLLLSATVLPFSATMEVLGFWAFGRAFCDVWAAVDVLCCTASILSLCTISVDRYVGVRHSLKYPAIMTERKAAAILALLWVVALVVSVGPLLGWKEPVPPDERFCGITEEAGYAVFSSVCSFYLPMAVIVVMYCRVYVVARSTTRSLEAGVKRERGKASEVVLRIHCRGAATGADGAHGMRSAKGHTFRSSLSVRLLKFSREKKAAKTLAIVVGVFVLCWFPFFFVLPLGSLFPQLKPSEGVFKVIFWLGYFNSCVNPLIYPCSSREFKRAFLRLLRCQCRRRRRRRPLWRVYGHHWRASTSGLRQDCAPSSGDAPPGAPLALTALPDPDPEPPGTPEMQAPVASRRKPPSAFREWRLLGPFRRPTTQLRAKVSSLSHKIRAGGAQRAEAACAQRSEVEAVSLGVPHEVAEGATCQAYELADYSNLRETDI
Description: PDSP Primary Binding target: ADRA1D - Compounds are tested at 10 uM concentration, plate are incubated at room temperature in the dark for 90 minutes. Reaction are stopped by vacuum filtration onto 0.3% polyethyleneimine soaked filter mats using Filtermate harvester. Scintilation cocktail is then melted onto microwave-dried filters on a hot plate and the radio activity is counted in Microbia counter.

In assay [2] the target is T2, Alpha-2A adrenergic receptor (Homo sapiens) (UniProt P08913).
T2 sequence (whole entry): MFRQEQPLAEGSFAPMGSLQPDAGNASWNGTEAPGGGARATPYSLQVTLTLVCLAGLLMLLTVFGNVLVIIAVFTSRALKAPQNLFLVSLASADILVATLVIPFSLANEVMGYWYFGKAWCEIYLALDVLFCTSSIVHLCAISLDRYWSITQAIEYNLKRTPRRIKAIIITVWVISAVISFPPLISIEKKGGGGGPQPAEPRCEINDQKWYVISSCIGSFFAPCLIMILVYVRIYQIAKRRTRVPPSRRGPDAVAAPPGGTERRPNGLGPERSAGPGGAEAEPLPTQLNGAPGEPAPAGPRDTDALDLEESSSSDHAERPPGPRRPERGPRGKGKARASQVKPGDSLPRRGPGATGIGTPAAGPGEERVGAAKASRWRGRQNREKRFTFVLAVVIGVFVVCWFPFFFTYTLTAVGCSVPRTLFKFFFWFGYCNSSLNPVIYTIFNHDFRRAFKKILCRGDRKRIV
Description: PDSP Primary Binding target: ADRA2A - Compounds are tested at 10 uM concentration, plate are incubated at room temperature in the dark for 90 minutes. Reaction are stopped by vacuum filtration onto 0.3% polyethyleneimine soaked filter mats using Filtermate harvester. Scintilation cocktail is then melted onto microwave-dried filters on a hot plate and the radio activity is counted in Microbia counter.

Assay [3] addresses T3, Muscarinic acetylcholine receptor M2 (Homo sapiens) (UniProt P08172).
T3 sequence (whole entry): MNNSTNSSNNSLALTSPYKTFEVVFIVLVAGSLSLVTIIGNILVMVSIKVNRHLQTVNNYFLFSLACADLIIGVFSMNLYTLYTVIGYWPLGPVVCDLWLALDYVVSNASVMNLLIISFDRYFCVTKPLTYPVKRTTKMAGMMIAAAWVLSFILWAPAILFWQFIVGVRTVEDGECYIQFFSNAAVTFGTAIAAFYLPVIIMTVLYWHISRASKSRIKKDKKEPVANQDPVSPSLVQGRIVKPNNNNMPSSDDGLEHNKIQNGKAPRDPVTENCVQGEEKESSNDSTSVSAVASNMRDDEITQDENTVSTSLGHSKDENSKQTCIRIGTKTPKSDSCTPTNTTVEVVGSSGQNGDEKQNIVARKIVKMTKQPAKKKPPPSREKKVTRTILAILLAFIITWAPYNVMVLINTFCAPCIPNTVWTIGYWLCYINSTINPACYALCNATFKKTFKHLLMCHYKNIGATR
Description: PDSP Primary Binding target: CHRM2 - Compounds are tested at 10 uM concentration, plate are incubated at room temperature in the dark for 90 minutes. Reaction are stopped by vacuum filtration onto 0.3% polyethyleneimine soaked filter mats using Filtermate harvester. Scintilation cocktail is then melted onto microwave-dried filters on a hot plate and the radio activity is counted in Microbia counter.

Assay [4] concerns the target Delta-type opioid receptor (Homo sapiens) (UniProt P41143).
Description: PDSP Primary Binding target: OPRD1 - Compounds are tested at 10 uM concentration, plate are incubated at room temperature in the dark for 90 minutes. Reaction are stopped by vacuum filtration onto 0.3% polyethyleneimine soaked filter mats using Filtermate harvester. Scintilation cocktail is then melted onto microwave-dried filters on a hot plate and the radio activity is counted in Microbia counter.
Assay [5] concerns the target T4, Alpha-2B adrenergic receptor (Homo sapiens) (UniProt P18089).
T4 sequence (whole entry): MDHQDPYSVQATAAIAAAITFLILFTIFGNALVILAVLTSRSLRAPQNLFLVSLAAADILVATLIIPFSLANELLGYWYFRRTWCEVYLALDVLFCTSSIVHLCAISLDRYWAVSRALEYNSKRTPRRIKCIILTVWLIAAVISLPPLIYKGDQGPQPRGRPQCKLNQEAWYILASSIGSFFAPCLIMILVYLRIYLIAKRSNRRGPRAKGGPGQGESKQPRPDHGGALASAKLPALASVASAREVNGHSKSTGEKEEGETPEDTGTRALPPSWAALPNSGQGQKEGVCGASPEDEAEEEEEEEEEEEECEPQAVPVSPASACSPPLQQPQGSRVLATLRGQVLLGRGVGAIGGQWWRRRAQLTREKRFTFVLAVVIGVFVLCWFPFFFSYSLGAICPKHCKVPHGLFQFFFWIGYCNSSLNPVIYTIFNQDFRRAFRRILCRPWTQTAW
Description: PDSP Primary Binding target: ADRA2B - Compounds are tested at 10 uM concentration, plate are incubated at room temperature in the dark for 90 minutes. Reaction are stopped by vacuum filtration onto 0.3% polyethyleneimine soaked filter mats using Filtermate harvester. Scintilation cocktail is then melted onto microwave-dried filters on a hot plate and the radio activity is counted in Microbia counter.

Assay [6] deals with T5, Alpha-1B adrenergic receptor (Homo sapiens) (UniProt P35368).
T5 sequence (whole entry): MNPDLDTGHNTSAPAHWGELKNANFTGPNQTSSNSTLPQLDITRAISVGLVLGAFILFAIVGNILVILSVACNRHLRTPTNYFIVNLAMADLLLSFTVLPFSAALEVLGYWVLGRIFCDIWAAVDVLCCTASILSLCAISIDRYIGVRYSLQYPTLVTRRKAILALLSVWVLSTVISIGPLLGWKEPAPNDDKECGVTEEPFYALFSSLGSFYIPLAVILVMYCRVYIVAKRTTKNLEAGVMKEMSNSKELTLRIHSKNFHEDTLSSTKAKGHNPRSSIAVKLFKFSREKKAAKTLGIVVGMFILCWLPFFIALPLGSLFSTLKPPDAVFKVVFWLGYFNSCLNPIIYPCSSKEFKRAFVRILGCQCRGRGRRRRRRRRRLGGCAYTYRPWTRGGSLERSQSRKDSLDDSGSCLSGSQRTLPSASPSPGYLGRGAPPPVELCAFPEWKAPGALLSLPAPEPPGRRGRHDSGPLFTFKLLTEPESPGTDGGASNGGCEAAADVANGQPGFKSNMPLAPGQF
Description: PDSP Primary Binding target: ADRA1B - Compounds are tested at 10 uM concentration, plate are incubated at room temperature in the dark for 90 minutes. Reaction are stopped by vacuum filtration onto 0.3% polyethyleneimine soaked filter mats using Filtermate harvester. Scintilation cocktail is then melted onto microwave-dried filters on a hot plate and the radio activity is counted in Microbia counter.

For assay [7], the target named is 5-hydroxytryptamine receptor 6 (Homo sapiens) (UniProt P50406).
Chain of 5-hydroxytryptamine receptor 6 (Homo sapiens) (P50406 whole entry): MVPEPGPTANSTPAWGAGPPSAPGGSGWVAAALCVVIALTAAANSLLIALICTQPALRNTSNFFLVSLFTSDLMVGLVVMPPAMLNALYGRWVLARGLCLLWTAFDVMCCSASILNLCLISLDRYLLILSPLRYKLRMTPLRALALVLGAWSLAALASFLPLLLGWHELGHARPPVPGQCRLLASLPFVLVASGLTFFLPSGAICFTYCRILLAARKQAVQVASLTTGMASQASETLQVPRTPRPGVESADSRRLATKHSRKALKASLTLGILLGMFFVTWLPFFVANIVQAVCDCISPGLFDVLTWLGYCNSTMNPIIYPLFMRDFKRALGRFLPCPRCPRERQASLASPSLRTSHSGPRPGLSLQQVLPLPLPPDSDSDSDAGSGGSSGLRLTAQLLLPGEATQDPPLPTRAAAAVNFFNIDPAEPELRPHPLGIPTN
Description: PDSP Primary Binding target: HTR6 - Compounds are tested at 10 uM concentration, plate are incubated at room temperature in the dark for 90 minutes. Reaction are stopped by vacuum filtration onto 0.3% polyethyleneimine soaked filter mats using Filtermate harvester. Scintilation cocktail is then melted onto microwave-dried filters on a hot plate and the radio activity is counted in Microbia counter.
Assay [8] deals with Mu-type opioid receptor (Homo sapiens) (UniProt P35372).
Chain of Mu-type opioid receptor (Homo sapiens) (P35372 whole entry): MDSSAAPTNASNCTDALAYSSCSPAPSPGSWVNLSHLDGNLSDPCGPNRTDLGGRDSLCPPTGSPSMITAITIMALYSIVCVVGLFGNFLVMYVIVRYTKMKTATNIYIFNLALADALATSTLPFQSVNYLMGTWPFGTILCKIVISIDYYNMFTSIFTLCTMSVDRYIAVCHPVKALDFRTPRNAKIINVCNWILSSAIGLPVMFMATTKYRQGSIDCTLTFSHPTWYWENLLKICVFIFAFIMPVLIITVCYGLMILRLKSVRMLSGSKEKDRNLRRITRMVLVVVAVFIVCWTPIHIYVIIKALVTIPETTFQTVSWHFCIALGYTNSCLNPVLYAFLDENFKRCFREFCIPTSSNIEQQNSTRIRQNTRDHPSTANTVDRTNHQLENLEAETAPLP
Description: PDSP Primary Binding target: OPRM1 - Compounds are tested at 10 uM concentration, plate are incubated at room temperature in the dark for 90 minutes. Reaction are stopped by vacuum filtration onto 0.3% polyethyleneimine soaked filter mats using Filtermate harvester. Scintilation cocktail is then melted onto microwave-dried filters on a hot plate and the radio activity is counted in Microbia counter.
For assay [9], the target named is Sodium-dependent serotonin transporter (Homo sapiens) (UniProt P31645).
Chain of Sodium-dependent serotonin transporter (Homo sapiens) (P31645 whole entry, looked up): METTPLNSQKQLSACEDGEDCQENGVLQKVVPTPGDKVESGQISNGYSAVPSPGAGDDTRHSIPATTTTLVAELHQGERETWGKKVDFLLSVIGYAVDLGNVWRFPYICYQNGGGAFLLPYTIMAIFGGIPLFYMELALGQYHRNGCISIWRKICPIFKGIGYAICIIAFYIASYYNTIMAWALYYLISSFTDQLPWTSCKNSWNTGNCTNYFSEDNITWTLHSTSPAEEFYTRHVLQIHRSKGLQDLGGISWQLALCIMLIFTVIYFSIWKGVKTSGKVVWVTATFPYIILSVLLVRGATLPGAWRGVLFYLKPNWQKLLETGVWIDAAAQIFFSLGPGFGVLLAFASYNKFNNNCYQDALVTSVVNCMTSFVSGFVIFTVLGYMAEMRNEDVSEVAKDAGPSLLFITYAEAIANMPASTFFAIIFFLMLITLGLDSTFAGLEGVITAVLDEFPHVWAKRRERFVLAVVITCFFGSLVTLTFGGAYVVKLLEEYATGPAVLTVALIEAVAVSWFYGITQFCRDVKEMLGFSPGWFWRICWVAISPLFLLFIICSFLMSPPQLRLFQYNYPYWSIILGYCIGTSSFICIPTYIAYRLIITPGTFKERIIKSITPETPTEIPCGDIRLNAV
Description: PDSP Primary Binding target: SLC6A4 - Compounds are tested at 10 uM concentration, plate are incubated at room temperature in the dark for 90 minutes. Reaction are stopped by vacuum filtration onto 0.3% polyethyleneimine soaked filter mats using Filtermate harvester. Scintilation cocktail is then melted onto microwave-dried filters on a hot plate and the radio activity is counted in Microbia counter.

The structures appear in SMILES notation.

Chain of Delta-type opioid receptor (Homo sapiens) (P41143 whole entry): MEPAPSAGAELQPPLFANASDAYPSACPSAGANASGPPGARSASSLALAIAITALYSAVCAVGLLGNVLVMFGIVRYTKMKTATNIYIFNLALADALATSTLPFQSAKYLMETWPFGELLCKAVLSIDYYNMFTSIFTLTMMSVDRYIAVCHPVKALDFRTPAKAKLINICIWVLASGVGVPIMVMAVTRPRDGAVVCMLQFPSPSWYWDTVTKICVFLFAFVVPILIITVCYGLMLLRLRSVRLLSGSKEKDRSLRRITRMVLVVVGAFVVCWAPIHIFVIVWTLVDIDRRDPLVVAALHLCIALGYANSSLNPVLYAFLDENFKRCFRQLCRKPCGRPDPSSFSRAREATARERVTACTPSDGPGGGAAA

Usually inhibition stands for the relative decrease from the control value, in per cent. Turning to `NC[C@H](O)c1ccc(O)c(O)c1`, the inhibition is 64.8% in assay [1]; 61.9% in [2]; -6.81% in [3]; -5.14% in assay [4]; 90.6% in assay [5]; 37.9% in assay [6].
`CC(C)NCC(O)COc1cccc2[nH]ccc12` (centres undefined): the inhibition was 13.6% in assay [1]; 29% in [2]; 4.75% in assay [7]; 16.8% in assay [8]; -9.11% in [3]; -2.56% in assay [4]. In addition, the inhibition in [6] was 6.47%.
For `FC(F)(F)c1cccc(-c2noc(-c3cc(-c4ccccc4)c(C(F)(F)F)s3)n2)c1`, the inhibition in [1] is 1.55%; in assay [2] it was -2.79%; in assay [7], -0.25%; in assay [8] it was -7.64%; in [3] it was -7.48%.
For `O=C1O[C@]2(CC[C@H](C(=O)Nc3ccn(-c4ccccc4F)n3)CC2)c2cnccc21`, the inhibition was -9.69% in assay [2]; 0.42% in [7]; 4.44% in assay [8]; -5.81% in assay [3]; -5.86% in assay [4]; 3.66% in assay [6].
As for `Clc1ccc(CCCOCCCN2CCCCC2)cc1`, the inhibition in assay [1] was 0.84%; in assay [2], -7.75%; in [7] it was 39.1%; in assay [8], 3.99%; in [3], 34.5%; in [4], -1.15%. Besides, the inhibition was 1.88% in assay [5] and 5.07% in assay [6].
As to `CN1C[C@H](C(=O)N[C@]2(C)O[C@@]3(O)[C@@H]4CCCN4C(=O)[C@H](Cc4ccccc4)N3C2=O)C[C@@H]2c3cccc4[nH]cc(c34)C[C@H]21`, the inhibition is 102% in assay [1]; 99.6% in assay [2]; 97.4% in assay [7]; 58.1% in assay [8]; 4.48% in assay [3]; 14.2% in [4]. The inhibition in assay [6] is 93.8%.
Take `Cc1c(F)cccc1NC(=O)Nc1ccc(Cl)c(S(=O)(=O)[C@H]2CCCNC2)c1O`: the inhibition in assay [7] was -2.87%; in assay [8], -3.61%; in assay [9] it was -2.95%; in assay [4], -5.71%; in [5], 3.18%.
For `N#Cc1c[nH]c2c(C(=O)N3CCN(CCc4ccc(F)cc4)CC3)cccc12`, the inhibition is -4.02% in [1]; -0.21% in assay [2]; 37.8% in assay [7]; 60.4% in assay [9]; -6.2% in assay [5]; 36.8% in [6].
Take `O=C(O)Cn1c(C(=O)Nc2nc(-c3ccccc3Cl)cs2)cc2ccccc21`: the inhibition in assay [1] was -3.75%; in assay [2], 8.83%; in assay [8], 8.9%; in [3], 0.82%; in [4] it was 19%; in assay [5] it was 2.63%. For the same compound, the inhibition in assay [6] is -9.67%.
Take `CN(C)S(=O)(=O)c1ccc(NC(=S)N2CCC(C(O)(c3ccccc3)c3ccccc3)CC2)cc1`: the inhibition is -9.2% in assay [2]; 8.14% in [7]; 2.22% in assay [8]; 16% in assay [9]; 10.2% in assay [4]; 14.4% in assay [5]. Also, the inhibition in assay [6] was -3.51%.
Take `COc1cc2nc(N3CCN(C(=O)c4ccco4)CC3)nc(N)c2cc1OC`: the inhibition in assay [1] was 0%; in [2], 42.3%; in assay [7], 19.4%; in assay [8], 50%; in [3] it was 15.9%; in [4] it was 4.29%. Further, in assay [6], the inhibition is 0%.
Regarding `CC1(C)SSC(C)(C)[C@@H](NC(=O)[C@@H](N)Cc2ccc(O)cc2)C(=O)NCC(=O)N[C@@H](Cc2ccccc2)C(=O)N[C@H]1C(=O)O`, the inhibition in assay [2] is 13.7%; in [3], -9.99%; in assay [5], 6.52%; in assay [6] it was 8.91%.
For `CC1=C2C[C@H]3[C@@H](CC=C4C[C@@H](O)CC[C@@]43C)[C@@H]2CC[C@]12O[C@@H]1C[C@H](C)CN[C@H]1[C@H]2C`, the inhibition in [1] is -8.81%; in assay [2], -1.14%; in assay [8] it was 10.4%; in assay [3], -1.88%; in assay [4], -0.87%; in assay [6], 13.7%.
For `COc1ccc2cc(S(=O)(=O)N[C@H](CC(=O)N[C@H](Cc3ccc(CN4[C@H](C)CCC[C@@H]4C)cc3)C(=O)N(C)C(C)C)c3ccc4c(c3)OCO4)ccc2c1`, the inhibition is 15.9% in assay [1]; 39.4% in [2]; 4.73% in [7]; 40% in assay [8]; 69.6% in assay [3]; 8.79% in assay [4]. Further, the inhibition in assay [5] is 33.5%; in [6], 2.74%.
Turning to `CN1CCC(=C2c3ccccc3CC(=O)c3sccc32)CC1`, the inhibition was 16.3% in assay [1]; 80.9% in [2]; 78.4% in [7]; 15.9% in assay [8]; 75.2% in assay [3]; 14.2% in assay [4]. For the same compound, the inhibition in assay [6] was 1.66%.
For `OC[C@H]1O[C@@H](n2cnc3c(NC4CCCC4)ncnc32)[C@H](O)[C@@H]1O`, the inhibition is -2.06% in [1]; -6.3% in assay [2]; 7.74% in [3]; -3.21% in assay [4]; 11% in assay [5]; 9.65% in [6].
For `Cc1nc(C#Cc2ccnc(Cl)c2)c(C)n1-c1ccc(OC(F)(F)F)cc1`, the inhibition was 20.7% in assay [1]; 23.9% in assay [2]; -0.41% in assay [7]; 13.4% in [8]; -0.78% in [3]; -5.91% in assay [4]. Moreover, in assay [5], the inhibition was 67.9%.
